Data as given in patent publication US20230159445A1, “STAT INHIBITORY COMPOUNDS AND COMPOSITIONS” (JANPIX LIMITED, priority 2020, published 2023).
Where two headings read alike, the source gives them in different places.

What was measured:
[1] = tested on: normal human fibroblast (NHF) cells; test: NHF Cell Cytotoxicity Assay (CellTiter-Blue, 72 h), off-target effects; assay type: cell-based; settings: Homo sapiens, Fibroblast; pooled NHF cells
In short: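 Normal human fibroblasts (1×10^4/well, 10% FBS medium) were treated after 24 h with inhibitor at 0.097656-50 μM for 72 h at 37° C. Viability was read by CellTiter-Blue fluorescence (560/590 nm), normalized to DMSO control, and IC50 obtained from a variable-slope log(inhibitor)-response fit of four replicates.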

glutathione (GSH) = test: Reactivity Profiling with Glutathione (GSH), half-life by HPLC; settings: 5 mM glutathione (GSH) in IMDM with 10% FBS
MV4-11 cells = test: MV4-11 Cell Cytotoxicity Assay (CellTiter-Blue, 72 h); assay type: cell-based, human; settings: Homo sapiens
In short: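 Cells seeded 24 h before treatment, then exposed 72 h at 37° C, 5% CO2 to inhibitors in triplicate, top concentration 50 μM with 1:2 serial dilutions (0.5% DMSO vehicle). Viability read by CellTiter-Blue fluorescence at 560/590 nm after 1 h.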

[2] = Reactivity Profiling with Glutathione (GSH), half-life by HPLC; settings: 5 mM glutathione, 25° C., HPLC
[3] = MV4-11 cells, 72 h, CellTiter-Blue, read-out: IC50- MV-4-11

half-life at 25 μM (glutathione (GSH)) [h] | Tl/2- GSH [2] | Structure (SMILES) | IC50 [1] [µM] | IC50 (MV4-11 cells; MV4-11, MV-4-11 cells) [nM] | IC50 (MV4-11 cells; [3]) [nM]
2.37 to 4.12 | – | CCOc1cc(C(=O)O)ccc1N(Cc1cc(C2CC2)cc(C(C)(C)C)c1)C(=O)CN(Cc1ccccc1C#N)S(=O)(=O)c1c(F)c(F)c(F)c(F)c1F [Compound 1272, 4-(N-(3-(tert-butyl)-5-cyclopropylbenzyl)-2-((N-(2-cyanobenzyl)-2,3,4,5,6-pentafluorophenyl)sulfonamido)acetamido)-3-ethoxybenzoic acid] | 10 to 20 | 0.01 to 316 | –
0.00167 to 2.37 | – | CCOc1cc(C(=O)O)ccc1N(Cc1cc(C2CC2)cc(C2CC2)c1)C(=O)CN(Cc1ccccc1C#N)S(=O)(=O)c1c(F)c(F)c(F)c(F)c1F [Compound 1273, 4-(2-((N-(2-cyanobenzyl)-2,3,4,5,6-pentafluorophenyl)sulfonamido)-N-(3,5-dicyclopropylbenzyl)acetamido)-3-ethoxybenzoic acid] | 10 to 20 | 0.01 to 316 | –
2.37 to 4.12 | – | CCOc1cc(C(=O)O)cc(F)c1N(Cc1cc(C2CC2)cc(C2CC2)c1)C(=O)CN(Cc1ccccc1C#N)S(=O)(=O)c1c(F)c(F)c(F)c(F)c1F [Compound 1274, 4-(2-((N-(2-cyanobenzyl)-2,3,4,5,6-pentafluorophenyl)sulfonamido)-N-(3,5-dicyclopropylbenzyl)acetamido)-3-ethoxy-5-fluorobenzoic acid] | 10 to 20 | 0.01 to 316 | –
4.12 to 9.23 | – | CCOc1cc(C(=O)O)cc(F)c1N(Cc1cc(C2CC2)cc(C2CC2)c1)C(=O)CN(Cc1ccc(F)cc1Cl)S(=O)(=O)c1c(F)c(F)c(F)c(F)c1F [Compound 1276, 4-(2-((N-(2-chloro-4-fluorobenzyl)-2,3,4,5,6-pentafluorophenyl)sulfonamido)-N-(3,5-dicyclopropylbenzyl)acetamido)-3-ethoxy-5-fluorobenzoic acid] | 10 to 20 | 0.01 to 316 | –
0.00167 to 2.37 | – | CCOc1cc(C(=O)O)ccc1N(Cc1cc(C2CC2)cc(C(C)(C)C)c1)C(=O)CN(Cc1cnccc1Cl)S(=O)(=O)c1c(F)c(F)c(F)c(F)c1F [Compound 1277, 4-(N-(3-(tert-butyl)-5-cyclopropylbenzyl)-2-((N-((4-chloropyridin-3-yl)methyl)-2,3,4,5,6-pentafluorophenyl)sulfonamido)acetamido)-3-ethoxybenzoic acid] | 0.001 to 10 | 0.01 to 316 | –
2.37 to 4.12 | – | CCOc1cc(C(=O)O)ccc1N(Cc1cc(C2CC2)cc(C2CC2)c1)C(=O)CN(Cc1ccccc1Cl)S(=O)(=O)c1c(F)c(F)c(F)c(F)c1F [Compound 1278, 4-(2-((N-(2-chlorobenzyl)-2,3,4,5,6-pentafluorophenyl)sulfonamido)-N-(3,5-dicyclopropylbenzyl)acetamido)-3-ethoxybenzoic acid] | 10 to 20 | 0.01 to 316 | –
4.12 to 9.23 | – | N#Cc1ccccc1CN(CC(=O)N(Cc1cc(C2CC2)cc(C2CC2)c1)c1ccc(C(=O)O)cc1OC1CCCC1)S(=O)(=O)c1c(F)c(F)c(F)c(F)c1F [Compound 1279, 4-(2-((N-(2-cyanobenzyl)-2,3,4,5,6-pentafluorophenyl)sulfonamido)-N-(3,5-dicyclopropylbenzyl)acetamido)-3-(cyclopentyloxy)benzoic acid] | 10 to 20 | 0.01 to 316 | –
2.37 to 4.12 | – | CC(C)Oc1cc(C(=O)O)ccc1N(Cc1cc(C2CC2)cc(C2CC2)c1)C(=O)CN(Cc1ccccc1C#N)S(=O)(=O)c1c(F)c(F)c(F)c(F)c1F [Compound 1280, 4-(2-((N-(2-cyanobenzyl)-2,3,4,5,6-pentafluorophenyl)sulfonamido)-N-(3,5-dicyclopropylbenzyl)acetamido)-3-isopropoxybenzoic acid] | 10 to 20 | 0.01 to 316 | –
2.37 to 4.12 | – | CCOc1cc(C(=O)O)ccc1N(Cc1cc(C2CC2)cc(N2CCCC2)c1)C(=O)CN(Cc1ccccc1C#N)S(=O)(=O)c1c(F)c(F)c(F)c(F)c1F [Compound 1281, 4-(2-((N-(2-cyanobenzyl)-2,3,4,5,6-pentafluorophenyl)sulfonamido)-N-(3-cyclopropyl-5-(pyrrolidin-1-yl)benzyl)acetamido)-3-ethoxybenzoic acid] | 10 to 20 | 0.01 to 316 | –
– | B (247≤B<554) | CC(C)(C)c1cc(CN(C(=O)CN(Cc2ccc(Cl)cc2)S(=O)(=O)c2c(F)c(F)c(F)c(F)c2F)c2ccc(C(=O)O)c(O)c2)cc(C(C)(C)C)c1 [Compound 2001, 4-(2-(N-(4-chlorobenzyl)-(2,3,4,5,6-pentafluorophenyl)sulfon-amido)-N-(3,5-di-tert-butylbenzyl)acetamido)-2-hydroxybenzoic acid] | – | – | 3160 to 100000
– | D (0.1<D<142) | O=C(O)c1ccc(N(Cc2ccccc2)C(=O)CN(Cc2ccc(Cl)cc2)S(=O)(=O)c2c(F)c(F)c(F)c(F)c2F)cc1O [Compound 2004, 4-(N-benzyl-2-(N-(4-chlorobenzyl)-(2,3,4,5,6-pentafluorophenyl)sulfon-amido)acetamido)-2-hydroxybenzoic acid] | – | – | 3160 to 100000
– | C (142≤C<247) | CC(C)(C)c1cc(CN(C(=O)CN(Cc2ccccc2F)S(=O)(=O)c2c(F)c(F)c(F)c(F)c2F)c2ccc(C(=O)O)c(O)c2)cc(C(C)(C)C)n1 [Compound 2015, 4-(N-((2,6-di-tert-butylpyridin-4-yl)methyl)-2-(N-(2-fluorobenzyl)-(2,3,4,5,6-pentafluoro-phenyl)sulfonamido)acetami-do)-2-hydroxybenzoic acid] | – | – | 3160 to 100000
– | D (0.1<D<142) | CN(C(=O)CN(Cc1ccccc1C(F)(F)F)S(=O)(=O)c1c(F)c(F)c(F)c(F)c1F)c1ccc(C(=O)O)cc1OC1CC1 [Compound 2016, 3-cyclopropoxy-4-(N-methyl-2-(N-(2-(trifluoromethyl)benzyl)-(2,3,4,5,6-pentafluoro-phenyl)sulfonamido)acetami-do)benzoic acid] | – | – | 1000 to 3160
– | D (0.1<D<142) | CN(C(=O)CN(Cc1ccccc1C(F)(F)F)S(=O)(=O)c1c(F)c(F)c(F)c(F)c1F)c1ccc(C(=O)O)cc1N1CCOCC1 [Compound 2017, 4-(N-methyl-2-(N-(2-(trifluoromethyl)benzyl)-(2,3,4,5,6-pentafluoro-phenyl)sulfonamido)acetami-do)-3-morpholinobenzoic acid] | – | – | 1000 to 3160
– | B (247≤B<554) | CC(C)(C)c1cc(CN(C(=O)CN(Cc2ccc(Cl)cc2)S(=O)(=O)c2c(F)c(F)c(F)c(F)c2F)c2ccc(C(=O)O)c(O)c2)cc(C2CCC2)c1 [Compound 2020, 4-(N-(3-(tert-butyl)-5-cyclobutylbenzyl)-2-(N-(4-chlorobenzyl)-(2,3,4,5,6-pentafluorophenyl)sulfon-amido)acetamido)-2-hydroxybenzoic acid] | – | – | 3160 to 100000
